Results reported in patent US20240042046A1, “METHODS AND COMPOUNDS FOR MODULATING HUNTINGTON'S DISEASE” (Design Therapeutics, Inc., priority 2022, published 2024).

Tests used:
[1] = tested on: human HTT mRNA, SNP rs362331 C allele, GM09197 fibroblasts; assay: Screening of HD molecules in GM09197 fibroblasts, allele-specific HTT mRNA by RT-PCR, C allele; assay type: cell-based; conditions: for GM 09197 E min 48 Hr C Allele (%): Emin = lowest % HTT observed within compound concentration 0.5 nM to 1000 nM
Experimental: (§1) Molecular Biology Toolkit: • qPCR primer probe sets: • RNA input normalization was assessed utilizing human glyceraldehyde 3-phosphate dehydrogenase (hGAPDH) TaqMan assay (ThermoFisher cat #4351370) or Human Cyclophillin ([…]) TaqMan assay (ThermoFisher cat #4351372) • Total HTT detection was assessed utilizing human Htt TaqMan assay (ThermoFisher cat #4331182) • Allele-specific detection of human HTT expression in HD cells containing the SNP rs362331C/T (Exon 50): for each assay, allele-specific probes to detect the SNP variant contained locked nucleic acid bases to improve allele discrimination, as compared to unmodified DNA probes.
(§2) • qPCR was performed using Agpath ID one-step reverse transcriptase polymerase chain reaction (RT-PCR) reagent
(§3) Screening of HD molecules methods: GM09197 and/or GM04022 fibroblasts were cultured in T175 flasks incubated at 37° C. and 5% CO2. Once confluency was reached, the media was removed, the cells were washed with 1×PBS, and cells were dissociated using TrypLE™ Express Enzyme. Media was added to the enzyme and collected into a 15-mL conical tube and centrifuged at 500×g for 5 minutes to pellet the cells. Media and enzyme were aspirated using a serological pipette. Cells were resuspended in fresh media and counted using a Countess 3 Automated Cell Counter. Cells were plated at a density of 15,000 cells/well in a tissue culture-treated polystyrene 96-well dish and incubated at 37° C. and 5% CO2 overnight. The next day, media was removed using an 8-channel aspirator. 200 μL media/well are added back into the plate. The molecules are formulated to 1 mM and are dispensed using a Multidrop™ Pico 8 Digital Dispenser. After a 48-hour incubation with compounds, media was removed from plates, cells were washed with 1×PBS, and cells were lysed in 40 μL per well guanidinium thiocyanate buffer. RNA was isolated and purified in […] glass fiber column plates using chaotropic salts. Human mtHTT, wtHTT, and GAPDH mRNA were measured via RT-PCR using the ThermoFisher QuantStudio™ 7 Flex System in 384-well format. Results of HTT levels were normalized to GAPDH mRNA levels. Normalized HTT mRNA levels were expressed relative to vehicle-treated samples to assess fold change after molecule treatment.
(§4) Emin for each compound is the lowest % HTT concentration observed within a compound concentration of 0.5 nM to 1000 nM.

[2] = tested on: human HTT mRNA, SNP rs362331 T allele, GM09197 fibroblasts; assay: Screening of HD molecules in GM09197 fibroblasts, allele-specific HTT mRNA by RT-PCR, T allele; assay type: cell-based; conditions: for Gm09197 Emin 48 hr T Allele (%): Emin = lowest % HTT observed within compound concentration 0.5 nM to 1000 nM; for IC50: Homo sapiens, Fibroblast, 48-hour incubation, T allele HTT mRNA normalized to GAPDH, relative to vehicle
Experimental: as §1, §2, §3, §4

| SMILES | GM 09197 E min 48 Hr C Allele (%) [1] | IC50 ([1]; Homo sapiens, Fibroblast, 48-hour incubation, C allele HTT mRNA normalized to GAPDH, relative to vehicle) [µM] | Gm09197 Emin 48 hr T Allele (%) [2] | IC50 [2] [µM] |
| --- | --- | --- | --- | --- |
| Cc1sc2c(c1C)C(c1ccc(Cl)cc1)=N[C@@H](CC(=O)Nc1ccc(OCCOCCOCCOCCOCCOCCOCCOCCOCCNC(=O)c3cc(NC(=O)c4nc(NC(=O)c5cc(NC(=O)[C@@H](N)CCNC(=O)c6nc(NC(=O)CCNC(=O)c7cc(NC(=O)c8nccn8C)cn7C)cn6C)cn5C)cn4C)cn3C)cc1)c1nnc(C)n1-2 [Compound A-37] | B (B is 90% to 80%) | > 1 | B (B is 90% to 80%) | > 1 |
| Cc1cc(F)cc(C)c1Oc1ccc(C(C)(C)O)cc1-c1cn(C)c(=O)c2[nH]c(C(=O)Nc3ccc(OCCOCCOCCOCCOCCOCCOCCOCCOCCNC(=O)CCNC(=O)c4nc(NC(=O)c5cc(NC(=O)CCNC(=O)c6nc(NC(=O)CCCNC(=O)c7cc(NC(=O)c8nc(NC(=O)CCNC(=O)c9cc(NC(=O)c%10nccn%10C)cn9C)cn8C)cn7C)cn6C)cn5C)cn4C)cc3)cc12 [Compound A-7] | A (A>90%) | – | A (A>90%) | > 1 |
| CCS(=O)(=O)Nc1ccc(Oc2ccc(F)cc2F)c(-c2cn(C)c(=O)c3[nH]c(C(=O)Nc4ccc(OCCOCCOCCOCCOCCOCCOCCOCCOCCOCCOCCOCCOCCOCCOCCOCCNC(=O)CCNC(=O)c5nc(NC(=O)c6cc(NC(=O)CCNC(=O)c7nc(NC(=O)NCCNC(=O)c8cc(NC(=O)c9nc(NC(=O)CCNC(=O)c%10cc(NC(=O)c%11nccn%11C)cn%10C)cn9C)cn8C)cn7C)cn6C)cn5C)cc4)cc23)c1 [Compound A-74] | B (B is 90% to 80%) | – | A (A>90%) | – |
| Cc1noc(C)c1-c1ccc2c(c1)nc(CCc1ccc(OCCOCCOCCOCCOCCOCCOCCOCCOCCOCCOCCOCCOCCOCCOCCOCCNC(=O)CCNC(=O)c3nc(NC(=O)c4cc(NC(=O)CCNC(=O)c5nc(NC(=O)CCCNC(=O)c6cc(NC(=O)c7nc(NC(=O)CCNC(=O)c8cc(NC(=O)c9nccn9C)cn8C)cn7C)cn6C)cn5C)cn4C)cn3C)c(Cl)c1)n2C[C@H](C)N1CCOCC1 [Compound A-54] | B (B is 90% to 80%) | – | B (B is 90% to 80%) | – |
| CCS(=O)(=O)Nc1ccc(Oc2ccc(F)cc2F)c(-c2cn(C)c(=O)c3[nH]c(C(=O)Nc4ccc(OCCOCCOCCOCCOCCOCCOCCOCCOCCOCCOCCOCCOCCOCCOCCOCCNC(=O)c5cc(NC(=O)c6nc(NC(=O)[C@H](N)CCNC(=O)c7cc(NC(=O)c8nc(NC(=O)CCNC(=O)c9cc(NC(=O)c%10nccn%10C)cn9C)cn8C)cn7C)cn6C)cn5C)cc4)cc23)c1 [Compound A-36] | A (A>90%) | – | A (A>90%) | – |
| Cc1noc(C)c1-c1ccc2c(c1)nc(CCc1ccc(OCCOCCOCCOCCOCCOCCOCCOCCOCCNC(=O)CCNC(=O)c3nc(NC(=O)c4cc(NC(=O)CCNC(=O)c5nc(NC(=O)CCCNC(=O)c6cc(NC(=O)c7nc(NC(=O)CCNC(=O)c8cc(NC(=O)c9nccn9C)cn8C)cn7C)cn6C)cn5C)cn4C)cn3C)c(Cl)c1)n2C[C@H](C)N1CCOCC1 [Compound A-53] | A (A>90%) | – | B (B is 90% to 80%) | – |
| CCNS(=O)(=O)c1ccc(Oc2ccc(OCCOCCOCCOCCOCCOCCOCCOCCOCCOCCOCCOCCOCCOCCOCCOCCNC(=O)CCNC(=O)c3nc(NC(=O)c4cc(NC(=O)CCNC(=O)c5nc(NC(=O)CCCNC(=O)c6cc(NC(=O)c7nc(NC(=O)CCNC(=O)c8cc(NC(=O)c9nccn9C)cn8C)cn7C)cn6C)cn5C)cn4C)cn3C)cc2F)c(-c2cn(C)c(=O)c3[nH]ccc23)c1 [Compound A-68] | A (A>90%) | – | C (C<80%) | – |
| CCNC(=O)c1cc2c(-c3cc(S(C)(=O)=O)ccc3Oc3ccc(OCCOCCOCCOCCOCCNC(=O)CCNC(=O)c4nc(NC(=O)c5cc(NC(=O)CCNC(=O)c6nc(NC(=O)CCCNC(=O)c7cc(NC(=O)c8nc(NC(=O)CCNC(=O)c9cc(NC(=O)c%10nccn%10C)cn9C)cn8C)cn7C)cn6C)cn5C)cn4C)cc3F)cn(C)c(=O)c2[nH]1 [Compound A-55] | A (A>90%) | – | A (A>90%) | – |
| Cc1sc2c(c1C)C(c1ccc(Cl)cc1)=N[C@H](CC(=O)Nc1ccc(OCCOCCOCCOCCOCCOCCOCCOCCOCCOCCOCCOCCOCCOCCOCCOCCNC(=O)CCNC(=O)c3nc(NC(=O)c4cc(NC(=O)CCNC(=O)c5nc(NC(=O)CCCNC(=O)c6cc(NC(=O)c7nc(NC(=O)CCNC(=O)c8cc(NC(=O)c9nccn9C)cn8C)cn7C)cn6C)cn5C)cn4C)cn3C)cc1)c1nnc(C)n1-2 [Compound A-45] | C (C<80%) | – | C (C<80%) | – |
| CCS(=O)(=O)Nc1ccc(Oc2ccc(F)cc2F)c(-c2cn(C)c(=O)c3[nH]c(C(=O)Nc4ccc(OCCOCCOCCOCCOCCOCCOCCOCCOCCOCCOCCOCCOCCOCCOCCOCCNC(=O)c5cc(NC(=O)c6nc(NC(=O)c7cc(NC(=O)[C@@H](N)CCNC(=O)c8nc(NC(=O)CCNC(=O)c9cc(NC(=O)c%10nccn%10C)cn9C)cn8C)cn7C)cn6C)cn5C)cc4)cc23)c1 [Compound A-40] | A (A>90%) | – | A (A>90%) | – |
| Cn1cc(NC(=O)c2nc(NC(=O)CCNC(=O)c3cc(NC(=O)c4nccn4C)cn3C)cn2C)cc1C(=O)NCCCC(=O)Nc1cn(C)c(C(=O)NCCC(=O)Nc2cc(C(=O)Nc3cn(C)c(C(=O)NCCC(=O)NCCOCCOCCOCCOCCOCCOCCOCCOCCN4C[C@H](Nc5cnn(C)c(=O)c5Br)C[C@H](c5ccccc5)C4)n3)n(C)c2)n1 [Compound A-48] | A (A>90%) | – | A (A>90%) | – |
| CCS(=O)(=O)Nc1ccc(Oc2ccc(F)cc2F)c(-c2cn(C)c(=O)c3[nH]c(C(=O)Nc4ccc(OCCOCCOCCOCCOCCOCCOCCOCCOCCOCCOCCOCCOCCOCCOCCOCCNC(=O)CCNC(=O)c5nc(NC(=O)c6cc(NC(=O)CCNC(=O)c7nc(NC(=O)OCCNC(=O)c8cc(NC(=O)c9nc(NC(=O)CCNC(=O)c%10cc(NC(=O)c%11nccn%11C)cn%10C)cn9C)cn8C)cn7C)cn6C)cn5C)cc4)cc23)c1 [Compound A-72] | B (B is 90% to 80%) | – | A (A>90%) | – |
| CC(=O)N1c2ccc(-c3ccn(-c4ccc(OCCOCCOCCOCCOCCOCCOCCOCCOCCNC(=O)CCNC(=O)c5nc(NC(=O)c6cc(NC(=O)CCNC(=O)c7nc(NC(=O)CCCNC(=O)c8cc(NC(=O)c9nc(NC(=O)CCNC(=O)c%10cc(NC(=O)c%11nccn%11C)cn%10C)cn9C)cn8C)cn7C)cn6C)cn5C)cc4)n3)cc2[C@H](Nc2ccc(C#N)cc2)C[C@@H]1C [Compound A-59] | B (B is 90% to 80%) | – | B (B is 90% to 80%) | – |
| CC(=O)Nc1c(F)cc(C(=O)N[C@H]2CC[C@H](O)CC2)cc1O[C@@H](C)c1cccc(C(=O)NCCOCCOCCOCCOCCOCCOCCOCCOCCOCCOCCOCCOCCOCCOCCOCCNC(=O)CCNC(=O)c2nc(NC(=O)c3cc(NC(=O)CCNC(=O)c4nc(NC(=O)CCCNC(=O)c5cc(NC(=O)c6nc(NC(=O)CCNC(=O)c7cc(NC(=O)c8nccn8C)cn7C)cn6C)cn5C)cn4C)cn3C)cn2C)c1 [Compound A-32] | B (B is 90% to 80%) | – | B (B is 90% to 80%) | – |
| Cc1sc2c(c1C)C(c1ccc(Cl)cc1)=N[C@@H](CC(=O)Nc1ccc(OCCOCCOCCOCCOCCOCCOCCOCCOCCNC(=O)CCNC(=O)c3nc(NC(=O)c4cc(NC(=O)CCNC(=O)c5nc(NC(=O)CCCNC(=O)c6cc(NC(=O)c7nc(NC(=O)CCNC(=O)c8cc(NC(=O)c9nccn9C)cn8C)cn7C)cn6C)cn5C)cn4C)cn3C)cc1)c1nnc(C)n1-2 [Compound A-1] | A (A>90%) | – | C (C<80%) | 0.114 |
